Measurements published in patent US6391595B1, “Transferase and amylase, process for producing the enzymes, use thereof, and gene coding for the same” (Kirin Beer Kabushiki Kaisha, priority 1994, dated 2002).

Legend:
[1] = target: T1, amylase derived from the Sulfolobus solfataricus strain KM1 (Saccharolobus solfataricus, UniProt Q55088); test: Substrate specificity of the purified amylase (hydrolyzing properties, TSK-gel Amide-80 HPLC); format: biochemical; details: for Liberated oligosaccharide / Production rate of mono- and disaccharides: 25.0 Units/ml enzyme, 10 mM substrate (amylopectin and soluble starch 2.8%); for Production rate of mono- and disaccharides: 1 Unit = 1 μmol per hour
T1 construct: endogenous in cells; host or cells: Sulfolobus solfataricus strain KM1 cells
T1 sequence (Q55088 1-559): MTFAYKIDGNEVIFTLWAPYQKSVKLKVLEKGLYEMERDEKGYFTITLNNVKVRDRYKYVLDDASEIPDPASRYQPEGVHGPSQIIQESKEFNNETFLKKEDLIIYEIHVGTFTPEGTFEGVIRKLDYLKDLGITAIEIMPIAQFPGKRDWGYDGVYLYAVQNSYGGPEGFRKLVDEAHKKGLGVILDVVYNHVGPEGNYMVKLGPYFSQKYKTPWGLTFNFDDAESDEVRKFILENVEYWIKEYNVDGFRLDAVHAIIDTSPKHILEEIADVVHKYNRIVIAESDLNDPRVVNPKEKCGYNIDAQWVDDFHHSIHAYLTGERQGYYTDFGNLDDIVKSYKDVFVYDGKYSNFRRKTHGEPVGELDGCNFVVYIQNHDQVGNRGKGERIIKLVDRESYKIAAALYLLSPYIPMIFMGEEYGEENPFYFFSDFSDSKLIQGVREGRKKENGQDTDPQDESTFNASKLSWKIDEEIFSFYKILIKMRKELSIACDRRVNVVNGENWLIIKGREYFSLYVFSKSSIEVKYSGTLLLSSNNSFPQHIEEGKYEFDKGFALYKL
Protocol: The hydrolyzing properties were analyzed by allowing 25.0 Units/ml (in terms of the enzymatic activity when maltotriosyltrehalose is used as the substrate) of the present purified enzyme to act on the various 10 mM substrates (except amylopectin and soluble starch were used as 2.8% solutions) listed in Table 16 below, and the hydrolyzed products were also analyzed.
Incidentally, each enzymatic activity in Table 16 is expressed with such a unit as 1 Unit equals the activity of liberating 1 μmol of each of the monosaccharide and disaccharide per hour.

[2] = system: transferase derived from the Sulfolobus solfataricus strain KM1; test: Substrate specificity of the transferase (production of α-1,α-1-transferred isomer); format: biochemical
Protocol: It was investigated whether or not the present enzyme acts on each of the substrates listed in Table 9 below to produce its α-1,α-1-transferred isomer. Here, the activity measurement was performed in the same manner as in Example I-1.

[3] = target: T2, recombinant novel amylase (Saccharolobus solfataricus, UniProt Q55088); test: Substrate specificity of the recombinant novel amylase (crude enzyme solution); details: for Liberated oligosaccharide / Production rate of mono- and disaccharides: 35.2 Units/ml crude enzyme solution, 10 mM substrate (amylopectin and soluble starch 3.0%); for Production rate of mono- and disaccharides: 1 Unit = 1 μmol per hour
T2 sequence (Q55088 1-559): T1 sequence (Q55088 1-559)

[4] = target: T3, swine pancreatic α-amylase (Sus scrofa, UniProt P00690); test: Hydrolysis of oligosaccharides by pancreatic α-amylase (comparative); format: biochemical; details: 1 Unit/ml α-amylase, 10 mM substrate, pH 6.9, 20° C.; for Production rate of di- and trisaccharides: 1 Unit = 1 umol per hour
T3 construct: purchased Sigma Co. A-6255
T3 sequence (P00690 16-511): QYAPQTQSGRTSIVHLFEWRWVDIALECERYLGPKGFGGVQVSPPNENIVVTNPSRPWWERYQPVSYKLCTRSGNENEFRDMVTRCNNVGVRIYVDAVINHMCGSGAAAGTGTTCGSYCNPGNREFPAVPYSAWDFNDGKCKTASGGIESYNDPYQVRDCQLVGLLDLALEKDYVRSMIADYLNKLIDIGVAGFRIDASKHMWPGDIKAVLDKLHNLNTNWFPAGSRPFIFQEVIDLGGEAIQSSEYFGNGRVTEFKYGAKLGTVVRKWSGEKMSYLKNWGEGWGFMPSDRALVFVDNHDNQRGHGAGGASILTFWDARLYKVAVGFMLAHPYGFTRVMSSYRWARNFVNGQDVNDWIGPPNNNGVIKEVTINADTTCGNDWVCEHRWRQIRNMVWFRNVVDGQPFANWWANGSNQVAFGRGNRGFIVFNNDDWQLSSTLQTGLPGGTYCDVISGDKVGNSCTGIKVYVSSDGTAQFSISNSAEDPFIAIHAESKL
Protocol: Swine pancreatic α-amylase is known to hydrolyze maltooligosaccharide from the reducing end by two or three sugar units [“Denpun.Kanren Toushitsu Kouso Jikken-hou” (“Experimental methods in enzymes for starch and relating saccharides”), p 135, written by Michinori Nakamura and Keiji Kainuma, published by Gakkai-Shuppan-Sentah]. Upon this, a swine pancreatic α-amylase (manufactured by Sigma Co., A-6255) was analyzed the hydrolyzing properties and the hydrolysates as a comparative example for the novel amylase of the present invention. […] The activity of producing disaccharide and trisaccharide was employed as the index of the enzymatic activity, and the analysis was performed by the TSK-gel Amide-80 HPLC analyzing method described in Example II-1.
Incidentally, the enzymatic activity values in Table 17 were expressed with such a unit as 1 Unit equals the activity of liberating 1 umol of each oligosaccharide per hour.

[5] = system: recombinant novel transferase; test: Conversion of maltooligosaccharides into α-1,α-1-transferred isomers by transferase from a transformant; format: biochemical, Sulfolobus solfataricus; details: 12.7 Units/ml concentrated enzyme solution (on maltotriose); 1 Unit = 1 μmol α-1,α-1-transferred isomer per hour
Protocol: Maltotriose (G3)-Maltoheptaose (G7) (all manufactured by Hayashibara Baiokemikaru Co.) were used as substrates. The crude enzyme solution obtained in Example I-14 was lyophilized, and then suspended in a 50 mM sodium acetate solution (pH 5.5) to make a concentrated enzyme solution. Each of the substrates was subjected to reaction with 12.7 Units/ml (in terms of the enzymatic activity when maltotriose is used as the substrate) of the concentrated enzyme solution to produce a corresponding α-1,α-1-transferred isomer. Each reaction product was analyzed by the method described in Example I-1 to examine the yield and the enzymatic activity. Incidentally, as to the enzymatic activity shown in Table 38, 1 Unit is defined as an enzymatic activity of transferring maltooligosaccharide to produce 1 μmol per hour of a corresponding α-1,α-1-transferred isomer.

[6] = system: transferase derived from the Sulfolobus solfataricus strain KM1; test: Conversion of maltooligosaccharides into α-1,α-1-transferred isomers by purified transferase; format: biochemical; details: substrate 100 mM; for Enzyme activity: enzyme 13.5 Units/ml (on maltotriose), 1 Unit = 1 umol α-1,α-1-transferred isomer per hour
Protocol: As the substrates, maltotriose (G3)-maltoheptaose (G7) were used in a concentration of 100 mM. The purified enzyme obtained in Example I-2 was then allowed to act on each of the above substrates in an amount of 13.5 Units/ml (in terms of the enzyme activity when the substrate is maltotriose) to produce a corresponding α-1,α-1-transferred isomer. Each product was analyzed by the method in Example I-1, and investigated its yield and enzyme activity. Incidentally, in Table 10, each enzymatic activity value was expressed with such a unit as 1 Unit equals the activity of converting the maltooligosaccharide into 1 umol of corresponding α-1,α-1-transferred isomer per hour.

[7] = target: T1, amylase derived from the Sulfolobus solfataricus strain KM1; test: biochemical; format: biochemical; details: Concentration 0.5 mM
[8] = system: transferase derived from the Sulfolobus solfataricus strain KM1; test: Influence of activators and inhibitors on glucosyltrehalose-producing activity; format: biochemical; details: Concentration 0.5 mM

Compound | Action of the enzyme on the substrate [1] | Liberated oligosaccharide [1] | Production rate of mono- and disaccharides [1] [units/ml] | Action of the enzyme on the substrate [2] | Action of the enzyme on the substrate [3] | Liberated oligosaccharide [3] | Production rate of mono- and disaccharides [3] [units/ml] | Production rate of di- and trisaccharides [4] [units/ml] | Enzyme activity [5] [unit/ml] | Activity relative to G3 [6] | Enzyme activity [6] [units/ml] | Residual activity [7] [%] | Residual activity [8] [%] | Liberated oligosaccharide [4]
OC[C@H]1O[C@H](OC[C@H]2O[C@H](OC[C@H]3O[C@H](OC[C@H]4O[C@H](OC[C@H]5OC(O)[C@H](O)[C@@H](O)[C@@H]5O)[C@H](O)[C@@H](O)[C@@H]4O)[C@H](O)[C@@H](O)[C@@H]3O)[C@H](O)[C@@H](O)[C@@H]2O)[C@H](O)[C@@H](O)[C@@H]1O (stereo partly shown) [Isomaltopentaose] | did not act | not decomposed | 0 | did not act | did not act | not decomposed | 0 |  |  |  |  |  |  | 
OC[C@H]1O[C@H](OC[C@H]2O[C@H](OC[C@H]3OC(O)[C@H](O)[C@@H](O)[C@@H]3O)[C@H](O)[C@@H](O)[C@@H]2O)[C@H](O)[C@@H](O)[C@@H]1O (stereo partly shown) [Isomaltotriose] | did not act | not decomposed | 0 | did not act | did not act | not decomposed | 0 |  |  |  |  |  |  | 
Maltopentaose [Maltopentaose (G5)] |  | Glucose + G2 + G3 + G4 | 1.79 |  |  | Glucose + G2 + G3 + G4 | 2.12 | 6.12 | 103.5 | approximately 8 times | 111.3 | 105.8 | 101.9 | 
Maltoheptaose [Maltoheptaose (G7)] |  | Glucose + G2 + G5 + G6 | 1.80 |  |  |  |  | 4.45 | 60.2 |  | 70.5 | 129.2 | 93.5 | 
OC[C@H]1O[C@H](O[C@H]2[C@H](O)[C@@H](O)[C@@H](O[C@H]3[C@H](O)[C@@H](O)[C@@H](O[C@H]4[C@H](O)[C@@H](O)C(O)O[C@@H]4CO)O[C@@H]3CO)O[C@@H]2CO)[C@H](O)[C@@H](O)[C@@H]1O (stereo partly shown) [Maltotetraose (G4), Maltotetraose] |  | Glucose + G2 + G3 | 0.31 |  |  | Glucose + G2 + G3 | 0.26 | 0.49 | 72.5 |  | 76.3 | 108.5 | 97.4 | Glucose + G2 + G3
OC[C@H]1O[C@H](OC[C@H]2O[C@H](OC[C@H]3O[C@H](OC[C@H]4OC(O)[C@H](O)[C@@H](O)[C@@H]4O)[C@H](O)[C@@H](O)[C@@H]3O)[C@H](O)[C@@H](O)[C@@H]2O)[C@H](O)[C@@H](O)[C@@H]1O (stereo partly shown) [Isomaltotetraose] | did not act | not decomposed | 0 | did not act | did not act | not decomposed | 0 |  |  |  |  |  |  | 
OC[C@H]1O[C@H](O[C@H]2[C@H](O)[C@@H](O)[C@@H](O[C@H]3[C@H](O)[C@@H](O)C(O)O[C@@H]3CO)O[C@@H]2CO)[C@H](O)[C@@H](O)[C@@H]1O (mixture of isomers) [Maltotriose (G3), Maltotriose] |  | Glucose + G2 | 0.30 |  |  | Glucose + G2 | 0.27 | 0 | 12.7 |  | 13.5 |  |  | not decomposed
OC[C@H]1O[C@H](OC[C@H]2O[C@H](O[C@H]3[C@H](O)[C@@H](O)C(O)O[C@@H]3CO)[C@H](O)[C@@H](O)[C@@H]2O)[C@H](O)[C@@H](O)[C@@H]1O (stereo partly shown) [Panose] | did not act | not decomposed | 0 | did not act | did not act | not decomposed | 0 |  |  |  |  |  |  | 
Maltohexaose [Maltohexaose (G6)] |  | Glucose + G2 + G4 + G5 | 1.74 |  |  |  |  | 4.44 | 87.3 |  | 100.9 | 123.8 | 91.0 | 
